Data reported in US20210253575A1, “PYRROLIDINE AMINE COMPOUNDS FOR THE TREATMENT OF AUTOIMMUNE DISEASE” (Hoffmann-La Roche Inc., priority 2018, published 2021).

molecular target: T1, human TLR7 (Homo sapiens, UniProt Q9NYK1); assay: HEK293-Blue-hTLR-7 cells assay (SEAP reporter, R848 stimulation); type: cell-based; conditions: HEK293-Blue-hTLR7 cells, R848 ligand, 20 hrs incubation
T1 sequence (Q9NYK1 27-1049): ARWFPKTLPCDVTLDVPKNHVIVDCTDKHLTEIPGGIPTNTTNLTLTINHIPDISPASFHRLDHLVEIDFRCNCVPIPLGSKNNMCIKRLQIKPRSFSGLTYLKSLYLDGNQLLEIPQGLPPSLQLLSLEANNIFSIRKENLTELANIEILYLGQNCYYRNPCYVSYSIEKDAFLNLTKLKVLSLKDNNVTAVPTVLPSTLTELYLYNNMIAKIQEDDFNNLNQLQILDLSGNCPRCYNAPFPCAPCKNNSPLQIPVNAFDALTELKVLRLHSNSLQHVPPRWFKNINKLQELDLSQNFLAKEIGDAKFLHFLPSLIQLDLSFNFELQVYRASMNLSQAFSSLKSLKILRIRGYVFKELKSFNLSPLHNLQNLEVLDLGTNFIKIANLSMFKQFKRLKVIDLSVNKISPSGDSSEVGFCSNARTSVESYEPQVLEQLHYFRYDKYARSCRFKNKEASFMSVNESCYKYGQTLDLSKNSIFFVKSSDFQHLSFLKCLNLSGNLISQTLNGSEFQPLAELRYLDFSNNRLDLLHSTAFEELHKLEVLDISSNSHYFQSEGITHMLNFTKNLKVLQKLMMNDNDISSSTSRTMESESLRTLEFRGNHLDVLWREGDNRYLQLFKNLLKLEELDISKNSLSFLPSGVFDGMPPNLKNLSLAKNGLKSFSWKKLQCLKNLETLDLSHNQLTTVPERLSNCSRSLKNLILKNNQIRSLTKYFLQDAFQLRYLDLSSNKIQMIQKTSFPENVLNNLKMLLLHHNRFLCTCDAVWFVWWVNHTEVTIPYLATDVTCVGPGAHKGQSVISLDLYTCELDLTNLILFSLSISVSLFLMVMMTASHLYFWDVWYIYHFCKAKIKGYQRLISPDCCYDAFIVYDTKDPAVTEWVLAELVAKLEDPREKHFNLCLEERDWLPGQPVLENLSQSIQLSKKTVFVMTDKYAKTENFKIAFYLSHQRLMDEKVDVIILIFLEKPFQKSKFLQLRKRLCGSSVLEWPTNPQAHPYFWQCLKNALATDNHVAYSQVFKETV
Summary of the method: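 Antagonism measured in stable HEK293-Blue-hTLR7 cells carrying an NF-κB/AP-1-driven SEAP reporter, stimulated with R848 (10 µL of 20 µM stock) with serially diluted compound, 1% DMSO, 20 h at 37 °C. Supernatant SEAP read with QUANTI-Blue after 2 h at 37 °C, absorbance 620–655 nm.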

First: N#Cc1ccc(N2C[C@H](CN3CCC4(CCCNC4)C3)[C@@H](C(F)(F)F)C2)c2cccnc12 (stereo partly drawn) [Example 6, 5-[(3S,7R)-3-(2,9-diazaspiro[4.5]decan-2-ylmethyl)-4-(trifluoromethyl)pyrrolidin-1-yl]quinoline-8-carbonitrile]
Second: N#Cc1ccc(N2C[C@H](CN3CCC4(CCCNC4)CC3)[C@@H](C(F)(F)F)C2)c2cccnc12 [Example 55, 5-[(3S,4R)-3-(2,9-Diazaspiro[5.5]undecan-9-ylmethyl)-4-(trifluoromethyl)pyrrolidin-1-yl]quinoline-8-carbonitrile]
The IC50 of the first is 2.3-fold lower: 48 nM for the first, 111 nM for the second.

First: N#Cc1ccc(N2CC(CN3CCC4NCC4C3)C3(CC3)C2)c2nccnc12 (centres unmarked) [Example 66, 8-[7-(3,7-Diazabicyclo[4.2.0]octan-3-ylmethyl)-5-azaspiro[2.4]heptan-5-yl]quinoxaline-5-carbonitrile]
Second: N#Cc1ccc(N2CC(CN3CC4CCNCC43)C3(CC3)C2)c2nccnc12 (centres unmarked) [Example 50, 8-[7-(3,8-Diazabicyclo[4.2.0]octan-8-ylmethyl)-5-azaspiro[2.4]heptan-5-yl]quinoxaline-5-carbonitrile]
The IC50 of the first is 3.7-fold lower: 63 nM for the first, 232 nM for the second. The first is the more potent here.

`N#Cc1ccc(N2C[C@H](CN3CC4(CC(N)C4)C3)[C@@H](C(F)(F)F)C2)c2cccnc12` [Example 53, 5-[(3S,4R)-3-[(6-Amino-2-azaspiro[3.3]heptan-2-yl)methyl]-4-(trifluoromethyl)pyrrolidin-1-yl]quinoline-8-carbonitrile] and `N#Cc1ccc(N2C[C@H](CN3CCC4(CCNCC4)C3)[C@@H](C(F)(F)F)C2)c2cccnc12` [Example 56, 5-[(3S,4R)-3-(2,8-Diazaspiro[4.5]decan-2-ylmethyl)-4-(trifluoromethyl)pyrrolidin-1-yl]quinoline-8-carbonitrile] are within 1.5-fold of each other in IC50: 115 nM for the first, 113 nM for the second.

Compared with `N#Cc1ccc(N2C[C@H](CN3CCC(N)CC3)[C@@H](C(F)(F)F)C2)c2nccnc12` [Example 51, 8-[(3S,4R)-3-[(4-amino-1-piperidyl)methyl]-4-(trifluoromethyl)pyrrolidin-1-yl]quinoxaline-5-carbonitrile], `N#Cc1ccc(N2C[C@H](CN3CCC4(CCNC4)CC3)[C@@H](C(F)(F)F)C2)c2nccnc12` [Example 14, 8-[(3S,4R)-3-(2,8-Diazaspiro[4.5]decan-8-ylmethyl)-4-(trifluoromethyl)pyrrolidin-1-yl]quinoxaline-5-carbonitrile] is 2.1-fold lower in IC50: 90 nM for the first, 43 nM for the second. The second is the more potent here.
